Reference: ChEMBL document CHEMBL1122481, “Substituted (2-phenoxyphenyl)acetic acids with antiinflammatory activity. 2” (J Med Chem, 1983)

Key:
[1] = Median lethal dose using 10 rats per dose.; format: ADME, organism-based; details: rat, in vivo
[2] = species: Rattus norvegicus; assay: Antiinflammatory activity in rats, activity expressed as minimum ulcerogenic dose(MUD) for a period of 24 hr.; format: functional
[3] = system: Rattus norvegicus; assay: Antiinflammatory activity in rats, at a dose of 10 mg/kg po(significant toxicity at 100 mg/kg), by adjuvant-induced arthritis test; format: functional
[4] = system: Rattus norvegicus; assay: Antiinflammatory activity in rats, at a dose of 10 mg/kg po(significant toxicity at 100 mg/kg), activity expressed as minimum ulcerogenic dose(MUD) for a period of 24 hr; Value ranges from (200-400); format: functional
[5] = species: Rattus norvegicus; assay: Potency measured relative to that of fenclofenac; format: functional
[6] = system: Rattus norvegicus; assay: Antiinflammatory activity in rats, at a dose of 100 mg/kg po, using adjuvant-induced arthritis test; format: functional
[7] = species: Rattus norvegicus; assay: Potency measured relative to that of fenclofenac.; format: functional
[8] = system: Rattus norvegicus; assay: Antiinflammatory activity in rats, at a dose of 100 mg/kg po, activity expressed as minimum ulcerogenic dose(MUD) for a period of 24 hr; Value ranges from (400-800); format: functional
[9] = system: Rattus norvegicus; assay: Antiinflammatory activity in rats, at a dose of 0.08 mg/kg po, using adjuvant-induced arthritis test; format: functional
[10] = system: Rattus norvegicus; assay: Antiinflammatory activity in rats, at a dose of 10 mg/kg po(showed some toxicity at this dose level), using adjuvant-induced arthritis test; format: functional
[11] = system: Rattus norvegicus; assay: Antiinflammatory activity in rats, at a dose of 2 mg/kg po, using adjuvant-induced as arthritis test; format: functional
[12] = system: Rattus norvegicus; assay: Antiinflammatory activity in rats, at a dose of 10 mg/kg po, activity expressed as minimum ulcerogenic dose(MUD) for a period of 24 hr; Value ranges from (100-200); format: functional

SMILES: COc1ccc2c(c1)c(CC(=O)O)c(C)n2C(=O)c1ccc(Cl)cc1 [INDOMETHACIN]
- LD50 [1]: 19.8 mg/kg
- MUD [2]: 1.25 mg/kg

SMILES: O=C(O)Cc1ccccc1Oc1c(Cl)ccc(Cl)c1Cl
- Inhibition [3]: 51%
- MUD [4]: 400 mg/kg
- Relative potency [5]: 14

SMILES: O=C(O)Cc1ccccc1Oc1ccc(Cl)cc1Cl [FENCLOFENAC]
- inhibition in vivo at 100 mg/kg [6]: 35%
- Relative potency [7]: 1
- MUD [8]: 800 mg/kg

SMILES: O=C(O)Cc1ccccc1Nc1c(Cl)c(Cl)cc(Cl)c1Cl
- inhibition in vivo at 0.08 mg/kg [9]: 18%

SMILES: O=C(O)Cc1ccccc1Oc1c(Cl)c(Cl)cc(Cl)c1Cl
- LD50 [1]: 303 mg/kg
- inhibition in vivo at 10 mg/kg [10]: 44%
- inhibition in vivo at 2 mg/kg [11]: 38%
- MUD [12]: 200 mg/kg
- Relative potency [7]: 40

SMILES: O=C(O)Cc1ccccc1Sc1c(Cl)c(Cl)cc(Cl)c1Cl
- inhibition in vivo at 0.08 mg/kg [9]: < 22%
- Relative potency [5]: 0.21

SMILES: O=C(O)Cc1ccccc1Oc1c(Cl)cc(Cl)c(Cl)c1Cl
- Inhibition [3]: 43%
- Relative potency [5]: 8

SMILES: O=C(O)Cc1ccccc1Oc1cc(Cl)cc(Cl)c1Cl
- Inhibition [3]: 21%
- Relative potency [5]: 1.5

SMILES: O=C(O)Cc1ccccc1[S+]([O-])c1c(Cl)c(Cl)cc(Cl)c1Cl (stereo unspecified)
- inhibition in vivo at 0.08 mg/kg [9]: 19%
